The record followed here is US20150038438A1, “ANTIBACTERIAL COMPOUNDS AND METHODS FOR USE” (PTC THERAPEUTICS, INC., priority 2011, published 2015).

Assay in all cases: Antibacterial activity, microbroth dilution method (MIC)
For assay [1], the system named is super sensitive Gram-negative Escherichia coli (E. coli) BAS849. The assay is classed as cell-based. Particulars: Escherichia coli; super sensitive Gram-negative E. coli BAS849; microbroth dilution; read-out: MIC, E. coli BAS849. A digest of the protocol: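 Microbroth dilution was used. MIC, in μg/mL, is the lowest drug concentration preventing macroscopically visible growth under the test conditions.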
On the technique in general: Dilution methods test growth across graded concentrations, often in twofold steps.

Assay [2] has as its system Gram-positive Staphylococcus aureus (S. aureus) 29213. The assay is classed as cell-based. To be noted: Staphylococcus aureus, Gram-positive S. aureus 29213. In outline:
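Broth microdilution; endpoint = no macroscopic growth; value = lowest inhibiting concn, μg/mL.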

Assay [3] has as its system control Gram-negative E. coli 25922 strain. The assay is classed as cell-based, Escherichia coli. To be noted: Escherichia coli. A digest of the protocol:
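Lowest concentration stopping macroscopically visible growth under test conditions, by broth microdilution, defines the MIC (μg/mL).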

Each structure is given as a SMILES string. In brackets after ≈: the same amount, converted by molar mass. Structures can show the parent of a compound that is named as a salt.

In general, MIC refers to the smallest concentration in the dilution series that meets the test's criterion for growth inhibition. Turning to `CN(C)c1ccc2c(c1)OCCc1c-2[nH]c(=O)c(C(=O)O)c1O` [Cpd 76, 9-(dimethylamino)-4-hydroxy-2-oxo-1,2,5,6-tetrahydrobenzo[2,3]oxepino[4,5-b]pyridine-3-carboxylic acid], the minimum inhibitory concentration (MIC) in assay [1] is under 1 µg/mL; in assay [2], 12.5 to 150 µg/mL (≈ 39.5 to 474 µM); in assay [3], 12.5 to 150 µg/mL (≈ 39.5 to 474 µM).
As for `CN[C@H]1[C@@H]2CN(c3ccc4c(c3)CCCc3c-4[nH]c(=O)c(C(=O)O)c3O)C[C@@H]21` [Cpd 11, 4-hydroxy-9-((cis,cis)-6-(methylamino)-3-azabicyclo[3.1.0]hexan-3-yl)-2-oxo-2,5,6,7-tetrahydro-1H-benzo[6,7]cyclohepta[1,2-b]pyridine-3-carboxylic acid hydrochloride], the values for the minimum inhibitory concentration (MIC) in assay [1], in assay [2] and in assay [3] were under 1 µg/mL, 3.5 to 12.5 µg/mL and 1 to 3.5 µg/mL, respectively.
For `CN1CCC2(CCN(c3ccc4c(c3)CCCc3c-4[nH]c(=O)c(C(=O)O)c3O)C2)C1.Cl` (stereo not drawn) [Cpd 123, 4-hydroxy-9-(7-methyl-2,7-diazaspiro[4.4]nonan-2-yl)-2-oxo-2,5,6,7-tetrahydro-1H-benzo[6,7]cyclohepta[1,2-b]pyridine-3-carboxylic acid hydrochloride], the MIC was under 1 µg/mL in assay [1], 12.5 to 150 µg/mL in assay [2] and 3.5 to 12.5 µg/mL in assay [3].
In the same order, the values of `Cl.Cn1c(CN2CCC2)cc2cc3c(cc21)OCCc1c-3[nH]c(=O)c(C(=O)O)c1O` [Cpd 91, 10-(azetidin-1-ylmethyl)-4-hydroxy-9-methyl-2-oxo-2,5,6,9-tetrahydro-1H-pyrido[2′,3′:4,5]oxepino[3,2-f]indole-3-carboxylic acid hydrochloride] are under 1 µg/mL, 12.5 to 150 µg/mL and under 1 µg/mL.
The matching figures for `CN1CCN(c2ccc3c(c2)NCCc2c-3[nH]c(=O)c(C(=O)O)c2O)CC1.Cl` [Cpd 96, 4-hydroxy-9-(4-methylpiperazin-1-yl)-2-oxo-2,5,6,7-tetrahydro-1H-benzo[b]pyrido[2,3-d]azepine-3-carboxylic acid hydrochloride]: 3.5 to 12.5 µg/mL, 12.5 to 150 µg/mL and 12.5 to 150 µg/mL.
In the same order, the values of `CN1CCN(Cc2cc3cc4c(cc3n2C)OCCc2c-4[nH]c(=O)c(C(=O)O)c2O)CC1.Cl.Cl` [Cpd 176, 4-hydroxy-9-methyl-10-((4-methylpiperazin-1-yl)methyl)-2-oxo-2,5,6,9-tetrahydro-1H-pyrido[2′,3′:4,5]oxepino[3,2-f]indole-3-carboxylic acid dihydrochloride] are under 1 µg/mL, 12.5 to 150 µg/mL and 3.5 to 12.5 µg/mL.
As to `CN(Cc1ccccc1)[C@H]1[C@@H]2CN(c3ccc4c(c3)CCCc3c-4[nH]c(=O)c(C(=O)O)c3O)C[C@@H]21` [Cpd 10, 9-((cis,cis)-6-(benzyl(methyl)amino)-3-azabicyclo[3.1.0]hexan-3-yl)-4-hydroxy-2-oxo-2,5,6,7-tetrahydro-1H-benzo[6,7]cyclohepta[1,2-b]pyridine-3-carboxylic acid hydrochloride], the MIC in assay [1] was 3.5 to 12.5 µg/mL; in assay [2], 1 to 3.5 µg/mL; in assay [3] it was 12.5 to 150 µg/mL.
Regarding `CN1CCCN(c2ccc3c(c2)CCCc2c-3[nH]c(=O)c(C(=O)O)c2O)CC1.Cl` [Cpd 112, 4-hydroxy-9-(4-methyl-1,4-diazepan-1-yl)-2-oxo-2,5,6,7-tetrahydro-1H-benzo[6,7]cyclohepta[1,2-b]pyridine-3-carboxylic acid hydrochloride], the minimal inhibitory concentration (MIC) in assay [1] lay within 1 to 3.5 µg/mL; in assay [2], 12.5 to 150 µg/mL; in assay [3], 3.5 to 12.5 µg/mL.
The matching figures for `CC(CO)NCc1cc2cc3c(cc2n1C)OCCc1c-3[nH]c(=O)c(C(=O)O)c1O.Cl` (stereo not drawn) [Cpd 178, 4-hydroxy-10-(((1-hydroxypropan-2-yl)amino)methyl)-9-methyl-2-oxo-2,5,6,9-tetrahydro-1H-pyrido[2′,3′:4,5]oxepino[3,2-f]indole-3-carboxylic acid hydrochloride]: under 1 µg/mL, 12.5 to 150 µg/mL and 12.5 to 150 µg/mL.
